Data: patent US20080255217A1, “PREVENTIVE OR THERAPEUTIC AGENT FOR CARDIAC DYSFUNCTION OR MYOCARDIAL INJURY CAUSED BY ISCHEMIA OR ISCHEMIA REPERFUSION” (SANWA KAGAKU KENKYUSHO CO., LTD., priority 2005, published 2008)

How the values were obtained:
[1] = system: hearts of wild-type mice (BDF-1); test: Isolated heart (Langendorff) ischemia-reperfusion, wild-type mice; set-up: species or system mouse; details: for deterioration of the cardiac performance and destruction of cardiac muscle due to an ischemia reperfusion injury in a heart: discussion summary of wild-type and hAR-TG results; for increase of left ventricular end-diastolic pressure (LVEDP) after ischemia reperfusion: 1 μM in perfusion solution, FIG. 2; for release of CK from cardiomyocytes: 60-min reperfusion, FIG. 4
Description: (§1) In an experimental test, hearts of 7 to 9 week-old wild-type mice (BDF-1) and hAR-TG were used. From these mice, hearts were isolated under anesthesia of pentobarbital 50 mg/kg i.p., and were placed in ice-cold saline. The isolated hearts were perfused for 20 minutes at a perfusion pressure of 70 mmHg with the Langendorff apparatus (Model IH-1 Type 844, HUGO SACHS ELEKTRONIK, Germany), and was stabilized. Thereafter, after perfusion for 30 minutes under heart function measurement, perfusion solution was completely stopped for 30 minutes, and reperfusion was performed for further 60 minutes, thereby, ischemia-ischemia reperfusion loading was performed. As perfusion solution, Krebs-Henseleit (KH) buffer containing 5.55 mM glucose and 2 mM Na-pyruvate was used. Cardiac performance was assessed by a left ventricular end-diastolic pressure (LVEDP) and peak first derivative of left ventricular systolic pressure (+dP/dt max). These were measured with a pressure transducer connected with a balloon inserted into a left ventricle in condition of hearts paced at 3 volt, 420 beats/min with an electrode placed on the top of a right ventricle, and data thereof were calculated with a four cannel recording device (OMUNIACE RT-3300, NEC, Japan). An AR inhibitor was added to the perfusion solution for 10 minutes from 15 minutes before global ischemia initiation as shown in FIG. 1. Each inhibitor (1 μM SNK-860: SNK, 1-10 μM zopolrestat: ZOP, 10 μM epalrestat: EPA) was dissolved in DMSO, and a DMSO final concentration in a perfusion solution was adjusted to 0.05%. DMSO of the same concentration was also added to a perfusion solution of a control experiment. Cardiomyocytes injury was determined using as an index the release of total creatinine kinase (CK) for 60-min reperfusion, and a myocardial ATP content after 60 minutes reperfusion was determined by the bioluminescence method (Sigma-Aldrich, St. Louis, Mo.) using luciferase, respectively.

[2] = system: hearts of human aldose reductase (AR) transgenic mice (hAR-TG); test: Isolated heart (Langendorff) ischemia-reperfusion, hAR-TG mice; set-up: species or system mouse; details: for increase in LVEDP: FIG. 5; for reduction in +dP/dt max: FIG. 6; for release of CK into a perfusion solution: FIG. 7; for decrease in a myocardial ATP content: after 60 minutes reperfusion, FIG. 8
From the text: In the present invention, not only wild-type mice, but also human aldose reductase (AR) transgenic mice (hAR-TG) which was produced so as to overexpress human-type AR genetically in a mouse, were used for predicting effectiveness in humans which is significant for the development of such a therapeutic agent. As a control for comparison with SNK-860, epalrestat and zopolrestat were used.
as §1
For hAR-TG mice, littermates (LM: hAR non-expression litter mouse) were used as control mice without drug treatment.

aldose reductase = aldose reductase (Homo sapiens, UniProt P15121); test: Aldose reductase inhibitory activity; type: biochemical; details: background statement
[3] = system: diabetic cardiomyopathy patients; details: Johnson B F: Diabetes Care 27,448, 2004; cited from earlier work
[4] = drug development ceased; cited from earlier work
[5] = wild-type mice, isolated heart, 1 μM

| SMILES | deterioration of the cardiac performance and destruction of cardiac muscle due to an ischemia reperfusion injury in a heart ([1]; lower concentration, non-diabetic state) | increase of left ventricular end-diastolic pressure (LVEDP) after ischemia reperfusion ([1]; wild-type mice, isolated heart) | reduction in peak first derivative of left ventricular systolic pressure (+dP/dt max) immediately after reperfusion ([1]; wild-type mice, isolated heart, 1 μM, FIG. 3) | release of CK from cardiomyocytes [1, 5] | increase in LVEDP ([2]; 1 μM) | reduction in +dP/dt max ([2]; 1 μM) | release of CK into a perfusion solution ([2]; 1 μM) | decrease in a myocardial ATP content ([2]; 1 μM) | aldose reductase inhibitory activity (aldose reductase) | cardiac performance of diabetic cardiomyopathy patients [3] | deterioration of the cardiac performance and destruction of cardiac muscle due to an ischemia reperfusion injury in a heart ([1]; high concentration) | increase in LVEDP ([2]; 10 μM) | reduction in +dP/dt max ([2]; 10 μM) | release of CK into a perfusion solution ([2]; 10 μM) | decrease in a myocardial ATP content ([2]; 10 μM) | manifestation of side effects [4] |
| --- | --- | --- | --- | --- | --- | --- | --- | --- | --- | --- | --- | --- | --- | --- | --- | --- |
| NC(=O)[C@@H]1C[C@]2(NC(=O)NC2=O)c2cc(F)ccc2O1 [SNK-860, (2S,4S)-6-fluoro-2′,5′-dioxospiro[chroman-4,4′-imidazolidine]-2-carboxamide] | completely inhibited | significantly improved | the most remarkable effect | significant reduction | significant improvement | significant improvement | equivalent improvement effect to that of the 10 μM epalrestat-addition group | equivalent improvement effect to that of the 10 μM epalrestat-addition group | strong aldose reductase inhibitory activity | – | – | – | – | – | – | – |
| O=C(O)Cc1nn(Cc2nc3cc(C(F)(F)F)ccc3s2)c(=O)c2ccccc12 [zopolrestat] | – | significantly improved | – | no effect | – | – | – | – | – | improves the cardiac performance | only the partial effect | significant improvement | significant improvement | significant improvement was not observed | significant improvement was not observed | hepatic disorders |
